For test [1], the target named is T1, M4 muscarinic receptor (Homo sapiens, UniProt P08173).
T1 construct: expressed in transfected cells; host or cells: CHO (M4-CHO)
T1 sequence (P08173 1-479): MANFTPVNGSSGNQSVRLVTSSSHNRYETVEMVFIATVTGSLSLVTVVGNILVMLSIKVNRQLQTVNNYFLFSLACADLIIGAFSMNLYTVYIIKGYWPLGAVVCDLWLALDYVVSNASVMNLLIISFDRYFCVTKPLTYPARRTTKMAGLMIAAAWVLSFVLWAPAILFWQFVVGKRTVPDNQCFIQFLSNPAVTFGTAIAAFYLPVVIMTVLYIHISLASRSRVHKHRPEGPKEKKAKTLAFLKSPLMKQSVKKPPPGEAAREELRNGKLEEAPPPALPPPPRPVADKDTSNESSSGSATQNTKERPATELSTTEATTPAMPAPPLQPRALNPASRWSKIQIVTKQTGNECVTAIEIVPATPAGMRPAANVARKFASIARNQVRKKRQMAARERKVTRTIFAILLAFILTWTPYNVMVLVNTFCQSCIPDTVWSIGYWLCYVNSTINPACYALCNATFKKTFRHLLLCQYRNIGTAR
Description: Functional mobilization of intracellular calcium (FLIPR), M4-CHO cells. The test is classed as cell-based. The following applies: for Emax: 100% efficacy is the maximum response obtained with the Carbachol control; for M4 Activity: CHO cells expressing M4, calcium mobilization. Here is the method:
(§1) Functional Mobilization of Intracellular Calcium to Determine Muscarinic Receptor Activity:
(§2) CHO cells expressing muscarinic receptors (M1 to M5) are grown as monolayers in tissue culture flasks at 37° C. in a humidified atmosphere containing 5% CO2 and passaged every 3-5 days. The growth media is Dulbecco's modified eagles medium (DMEM, Gibco Cat#12430-054), containing 25 mM Hepes and supplemented with Fetal Bovine Serum (Hyclone, cat# SH30071.03), 0.1 mM of MEM non-essential amino acids (GIBCO, Cat#11140-050), 1 mM MEM Sodium Pyruvate (GIBCO Cat#11360-070) and 100 units/ml of Penicillin G and 100 μg/ml of Streptomycin (GIBCO Cat#15140-122). The recombinant muscarinic receptor cell lines are grown under antibiotic pressure with media containing 25 μg/ml zeocin and 500 μg/ml G418 (M1-CHO), 4 μg/ml puromycin, 50 μg/ml zeocin and 2.5 μg/ml blasticidin (M2 and M4-CHO) or 50 μg/ml zeocin and 4 μg/ml puromycin (M3 and M5-CHO).
(§3) Cells are harvested at 80-90% confluence using Versene (GIBCO Cat#15040-066), collected by centrifugation and seeded 18-24 hours prior to running the calcium assay at a density of 5,000-10,000 cells/well in […], clear-bottomed 384-well plates (BD Biocoat, poly-D-lysine, Cat#356663). The day of the experiment, the cells are washed with a plate washer (Bioteck Instrunents, ELX 405) using bath 1 buffer (140-mM NaCl, 4.5-mM KCl, 2-mM CaCl2, 1-mM MgCl2, 10-mM Hepes-Na, 10-mM Glucose, pH 7.4, with NaOH) containing 1 mM Probenecid. Next, the calcium dye Fluo-3 (25 μl/well of Fluo-3 AM at 4 μM, Molecular Probes F-1241, in Bath 1 buffer containing 1 mM Probenecid) is added to the 25 μl of Bath 1 remaining in each well after the plate wash and the dye is loaded at 37° C. in the tissue culture incubator for 60-90 min. The fluorescent dye is removed using the plate washer with Bath 1 containing 1 mM Probenecid, leaving 25 μl/well of this solution after the wash. Alternatively, cells can be loaded with the calcium indicator from Molecular Devices (Calcium 3 Assay Reagents, Cat # R7181) adding 5 μl of a 5× solution dye in Bath 1 containing 1 mM Probenecid (10 ml per dye flask cat# R7182 to generate a solution 20×) to 20 μl of the same buffer. After loading for 60 min, the experiment can be run without having to remove the dye.
(§4) Compounds are prepared at a 2× fold concentration in a 96-well plate (round bottom, Costar Corning cat#3656), by reconstituting the pre-spotted compounds in bath 1 containing 1 mM probenecid. The final concentration DMSO is 0.5%, and the amount of DMSO is normalized across the assay plate. To determine an agonist action of the compounds on muscarinic receptors, the reconstituted compounds are added (25 μl compound/well) to the cell assay plate (containing 25 μl/well) using the multi-channel robotic system of the FLIPR 3 Instrument (Molecular Devices, Sunnyvale, Calif.). To determine a functional inhibitory action of the compounds on muscarinic receptors, the reconstituted compounds are added (25 μl compound/well) to the assay plate and pre-incubated for 15 min prior to adding 25 μl of Carbachol at 3× the EC80 for each muscarinic subtype. Alternatively, the compounds can be co-applied simultaneously with the agonist. In both assay modes, the fluorescence is recorded for 60 sec (excitation wavelength is […] and emission wavelength 540 nm) using the FLIPR 3 instrument.
(§5) The potency, efficacy and selectivity of the muscarinic compounds were evaluated by screening the compound activity across the whole family (M1 to M5 cells). Compounds were also screened for activity on other proteins such as other GPCRs and ion channels to determine selectivity on M4 receptors.
(§6) Examples of activities and efficacies of the muscarinic compounds of formulae (I, Ia, Ib, Ic, Id, and Ie) on modulating M1 and M4 receptors are shown below in Table 4. […]
(Calcium assays in cells follow changes in intracellular calcium, usually with a dye or a luminescent sensor.)

For test [2], the target named is T2, M1 muscarinic receptor (Homo sapiens, UniProt P11229).
T2 construct: expressed in transfected cells; host or cells: CHO (M1-CHO)
T2 sequence (P11229 1-460): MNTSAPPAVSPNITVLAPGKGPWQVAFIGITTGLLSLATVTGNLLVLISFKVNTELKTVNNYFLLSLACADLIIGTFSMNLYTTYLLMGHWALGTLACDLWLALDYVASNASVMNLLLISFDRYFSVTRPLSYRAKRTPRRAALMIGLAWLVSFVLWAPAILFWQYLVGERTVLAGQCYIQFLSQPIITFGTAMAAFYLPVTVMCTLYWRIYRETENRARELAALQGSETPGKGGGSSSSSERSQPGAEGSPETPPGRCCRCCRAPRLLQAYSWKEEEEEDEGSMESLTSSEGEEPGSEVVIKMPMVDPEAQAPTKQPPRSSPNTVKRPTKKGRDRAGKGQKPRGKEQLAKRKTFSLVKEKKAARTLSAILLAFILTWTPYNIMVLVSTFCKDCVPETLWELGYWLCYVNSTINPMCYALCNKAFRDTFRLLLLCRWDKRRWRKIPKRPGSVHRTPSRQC
The test is described as follows: Functional mobilization of intracellular calcium (FLIPR), M1-CHO cells. Format: cell-based. The following applies: for Emax: 100% efficacy is the maximum response obtained with the Carbachol control; for M1 Activity: CHO cells expressing M1, calcium mobilization. Here is the method: as §1, §2, §3, §4, §5, §6

Turning to `C#CCOC(=O)N1CCC(N2CCC3(CC2)CN(C(=O)N(C)C)c2ccccc23)CC1` [compound 92], in test [1], the Emax was over 100% and the “M4 Activity” value was “+++ (activity was measured to be less than 2.0 μM)”. In test [2], the Emax was over 100% and the “M1 Activity” value is reported as “+++ (activity was measured to be less than 2.0 μM)”.
`Cc1ncc(N2CC[C@H](CN3CCC4(CC3)CN(C(=O)N(C)C)c3ccccc34)C2)nc1C` [compound 87]: in test [1], the maximal effect (Emax) lay in the range of 25 to 100% and the “M4 Activity” value is on record as “+++ (activity was measured to be less than 2.0 μM)”. In addition, in test [2], the Emax was under 25% and the “M1 Activity” value is reported as “+ (activity was measured to be greater than 10.0 μM)”.
Taken in the same sequence, the figures for `Cc1nsc(N2C3CCC2CC(N2CCC4(CC2)CN(C(=O)N(C)C)c2ccccc24)C3)n1` (stereo not shown) [Compound No. 65, N,N-dimethyl-1′-(8-(3-methyl-1,2,4-thiadiazol-5-yl)-8-azabicyclo[3.2.1]octan-3-yl)spiro[indoline-3,4′-piperidine]-1-carboxamide] were 25 to 100%, “+++ (activity was measured to be less than 2.0 μM)”, 25 to 100% and “+++ (activity was measured to be less than 2.0 μM)”.
Taken in the same sequence, the figures for `Cc1nsc(N2CC[C@H](CN3CCC4(CC3)CN(C(=O)N(C)C)c3ccccc34)C2)n1` [compound 83] were 25 to 100%, “+++ (activity was measured to be less than 2.0 μM)”, 25 to 100% and “++ (activity was measured to be from 2.0 μM to 10.0 μM)”.
Consider `C#CCCOC(=O)N1CCC(N2CCC3(CC2)CN(C(=O)N(C)C)c2ccccc23)CC1` [compound 44], for which, in test [1], the Emax lay in the range of 25 to 100% and the “M4 Activity” value is listed as “+++ (activity was measured to be less than 2.0 μM)”. In test [2], the maximal effect (Emax) was 25 to 100% and the “M1 Activity” value is “+++ (activity was measured to be less than 2.0 μM)”.
Regarding `Cc1ncc(N2CCC(N3CCC4(CC3)CN(C(=O)N(C)C)c3ccccc34)CC2)nc1C` [compound 88], in test [1], the maximal effect (Emax) was in the range of 25 to 100% and the “M4 Activity” value is “+++ (activity was measured to be less than 2.0 μM)”. Further, in test [2], the Emax fell in the range of 25 to 100% and the “M1 Activity” value is recorded as “++ (activity was measured to be from 2.0 μM to 10.0 μM)”.
Consider `CC(=O)N1CCC2(CCN(C3CCN(c4ncc(C)s4)CC3)CC2)c2ccccc21` [compound 37], for which, in test [1], the Emax was under 25% and the “M4 Activity” value is “+ (activity was measured to be greater than 10.0 μM)”. For the same molecule, in test [2], the Emax was under 25% and the “M1 Activity” value is on record as “+ (activity was measured to be greater than 10.0 μM)”.
Regarding `CCc1nsc(N2CC[C@@H](CN3CCC4(CC3)CN(C(=O)N(C)C)c3ccccc34)C2)n1` [compound 86], in test [1], the Emax fell in the range of 25 to 100% and the “M4 Activity” value is on record as “+++ (activity was measured to be less than 2.0 μM)”. In test [2], the Emax fell in the range of 25 to 100% and the “M1 Activity” value is reported as “+++ (activity was measured to be less than 2.0 μM)”.
With `CN(C)C(=O)N1CC2(CCN(C3CCN(c4nncs4)CC3)CC2)c2ccccc21` [compound 89], in test [1], the Emax fell in the range of 25 to 100% and the “M4 Activity” value is “++ (activity was measured to be from 2.0 μM to 10.0 μM)”. In test [2], the Emax is under 25% and the “M1 Activity” value is on record as “++ (activity was measured to be from 2.0 μM to 10.0 μM)”.
In the case of `CN(C)C(=O)N1CC2(CCN(C3CCN(c4cncc(-c5ccccc5O)n4)CC3)CC2)c2ccccc21` [compound 113], in test [1], the Emax was under 25% and the “M4 Activity” value is given as “+ (activity was measured to be greater than 10.0 μM)”. For the same molecule, in test [2], the Emax is 25 to 100% and the “M1 Activity” value is “+++ (activity was measured to be less than 2.0 μM)”.
Taken in the same sequence, the figures for `CCOC(=O)N1C2CCC1CC(N1CCC3(CC1)CN(C(=O)N(C)C)c1ccccc13)C2` (stereo not shown) [compound 46] were 25 to 100%, “+++ (activity was measured to be less than 2.0 μM)”, 25 to 100% and “+++ (activity was measured to be less than 2.0 μM)”.
Taken in the same sequence, the figures for `CN(C)C(=O)N1CC2(CCN(C3(C)CCN(c4cnccn4)CC3)CC2)c2ccccc21` [compound 82] were 25 to 100%, “+++ (activity was measured to be less than 2.0 μM)”, 25 to 100% and “++ (activity was measured to be from 2.0 μM to 10.0 μM)”.
Taken in the same sequence, the figures for `COC(=O)N1C2CCC1CC(N1CCC3(CCN(C(=O)N(C)C)c4ccccc43)CC1)C2` (stereo not shown) [compound 26] were 25 to 100%, “+++ (activity was measured to be less than 2.0 μM)”, 25 to 100% and “++ (activity was measured to be from 2.0 μM to 10.0 μM)”.
With `COC(=O)N1CCCC(N2CCC3(CC2)CN(C(=O)N(C)C)c2ccccc23)CC1` (stereo not shown) [compound 67], in test [1], the maximum response (Emax) lay in the range of 25 to 100% and the “M4 Activity” value is reported as “+++ (activity was measured to be less than 2.0 μM)”. In test [2], the maximal effect (Emax) lay within 25 to 100% and the “M1 Activity” value was “+++ (activity was measured to be less than 2.0 μM)”.
As to `CC(=O)N1CCC2(CCN(C3CCNCC3)CC2)c2ccccc21` [compound 34], in test [1], the Emax is under 25% and the “M4 Activity” value is on record as “++ (activity was measured to be from 2.0 μM to 10.0 μM)”. In test [2], the maximal response (Emax) was under 25% and the “M1 Activity” value is “+ (activity was measured to be greater than 10.0 μM)”.
For `CC#CCOC(=O)N1CC[C@H](CN2CCC3(CC2)CN(C(=O)N(C)C)c2ccccc23)C1` [compound 101], in test [1], the Emax is over 100% and the “M4 Activity” value is “+++ (activity was measured to be less than 2.0 μM)”. Besides, in test [2], the maximum response (Emax) was 25 to 100% and the “M1 Activity” value is “+++ (activity was measured to be less than 2.0 μM)”.

The term Emax denotes the size of the effect at its maximum, as opposed to the concentration needed.

The values above are taken from patent publication US8263605B2, “Modulators of muscarinic receptors” (Vertex Pharmaceutical Incorporated, priority 2006, dated 2012).
